In patent US20150072933A1, “NOVEL SEQUENCES FOR THE CONTROL OF REPRODUCTION IN FISH” (Yissum Research Development Company of the Hebrew …, priority 2011, published 2015):
“Also recorded” adds a separate entry of the source. Where a SMILES comes first, the peptide text is derived from it.

Tests used:
[1] = system: sexually mature female zebrafish; assay: In vivo effect of NKBs in zebrafish: LH secretion after intraperitoneal injection; settings: single intraperitoneal injection
Experimental: In vivo studies involved administering NKBa, NKBb or NKF and the analogues thereof, denoted by SEQ ID NO. 40-42 and 44-46, respectively to immature fish (20 fish/treatment). The circulating levels of E2, 11KT, LH and FSH were determined prior to hormonal manipulations, in order to confirm that these fish were indeed sexually immature. The fish were injected intramuscularly (i.m.) or intraperitonealy (i.p.) at various doses. Adult female zebra fish were injected intraperitoneally with 20 pmol/g body weight. Control fish were injected with saline. Plasma samples were collected at time 0, and specific times after the administration of the peptide/s, to determine the levels of E2, 11KT, LH and FSH.
To further characterize the role of the NKB/NKBR system in fish reproduction the in vivo biological function of zebrafish NKB peptides was next examined.

[2] = biological target: T1, NKB receptors (human NKBR, zebrafish Tac3ra, Tac3rb) (Homo sapiens, UniProt P29371); assay: Receptor transactivation assay, statements in words across SRE-Luc and CRE-Luc reporters and receptors; format: cell-based; settings: human NKBR (huNK3R), in both signal transduction systems (SRE-Luc and CRE-Luc)
T1 construct: expressed in transfected cells; host or cells: COS-7
T1 sequence (P29371 1-465): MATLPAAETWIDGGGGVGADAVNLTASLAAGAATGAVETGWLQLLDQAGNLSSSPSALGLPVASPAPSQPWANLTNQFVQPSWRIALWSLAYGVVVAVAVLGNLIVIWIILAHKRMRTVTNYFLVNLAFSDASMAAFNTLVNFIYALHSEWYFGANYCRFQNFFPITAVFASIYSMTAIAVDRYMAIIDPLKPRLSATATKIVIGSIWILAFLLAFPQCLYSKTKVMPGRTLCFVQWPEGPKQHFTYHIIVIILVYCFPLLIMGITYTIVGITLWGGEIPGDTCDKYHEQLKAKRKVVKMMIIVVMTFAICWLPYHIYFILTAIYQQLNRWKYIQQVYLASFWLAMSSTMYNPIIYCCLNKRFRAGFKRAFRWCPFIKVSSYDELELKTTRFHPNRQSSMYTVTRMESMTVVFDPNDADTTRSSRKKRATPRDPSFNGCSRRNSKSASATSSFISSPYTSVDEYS
Experimental: (§1) In order to study the signaling pathways of the novel zebrafish NKBs, the entire coding regions of zftac3ra (denoted by SEQ ID NO:6) or zftac3rb (denoted by SEQ ID NO:7), or the cDNA clone for human NK3R (obtained from the Missouri S&T cDNA Resource Center, were inserted into pcDNA3.1 (Invitrogen). The luciferase assay was conducted according to Biran et al., 2008 [4] COS-7 cells were grown in DMEM supplemented with 10% FBS, 1% glutamine, 100 U/ml penicillin, and […] streptomycin (Biological Industries) under 5% CO2 until confluent. Cotransfection of either pc-zftac3ra, pc-zftac3rb or pc-Htac3r (at 3 μg/plate), a reporter plasmid (at 2 μg/plate), and pCMV-β-galactosidase (at 1 μg/plate) was carried out with FuGENE 6.0 reagent (Roche). The cells were serum starved for 36 h, stimulated with vehicle or various concentrations of either human (Sigma) or zebrafish NKBs for 6 h, and then harvested and analyzed. Lysates prepared from the harvested cells were assayed for both luciferase activity and β-galactosidase activity, which was used as an internal standard to normalize the luciferase activity directed by the test plasmid. Transfection experiments were performed in triplicate with three independently isolated sets. Protein structure prediction of zebrafish NKBa, NKBb or NKF were performed on I-Tasser servers.
(§2) The response, binding selectivity and signal transduction pathways of the novel tachykinin receptors to their agonists were evaluated by functional expression analysis, using COS-7 cells.
(§3) Thus, the ability of the three novel piscine peptides (namely, NKBa, NKBb and NKF, denoted by SEQ ID NO.40, 41 and 42), as well as the ability of the three analogous agonistic peptides, namely, NKBa-analog, NKBb-analog and NKF-analog, to differentially activate the different tac3 receptors, using SRE as a reporter gene that follows PKC activation and CRE as a reporter gene for the PKA pathway, was tested. Human NK3R (human NKB receptor) and human NKB served as controls.

[3] = system: NKB receptors (human NKBR, zebrafish Tac3ra, Tac3rb); assay: as above; format: cell-based; settings: both zebrafish tac3 receptors, in both signal transduction systems
Experimental: as §1, §2, §3

[4] = system: zfTac3rb; assay: Receptor transactivation assay, SRE-Luc reporter (PKC activation), COS-7 cells expressing zfTac3rb; format: cell-based, zebrafish; settings: mean ± SEM
Procedure, shortened: (§4)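 COS-7 cells were cotransfected with zebrafish tac3ra or tac3rb (or human NK3R), an SRE-Luc (PKC) or CRE-Luc (PKA) reporter and β-galactosidase. After 36 h serum starvation, cells were stimulated with vehicle or various concentrations of human or zebrafish NKBs or analogs for 6 h. Luciferase was normalized to β-galactosidase; triplicates, three independent sets.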

[5] = system: zfTac3rb; assay: Receptor transactivation assay, CRE-Luc reporter (PKA activation), COS-7 cells expressing zfTac3rb; format: cell-based, zebrafish; settings: mean ± SEM
Procedure, shortened: as §4

[6] = biological target: T2, huNK3R (Homo sapiens, UniProt P29371); assay: Receptor transactivation assay, CRE-Luc reporter (PKA activation), COS-7 cells expressing human NK3R; format: cell-based; settings: Table 5, CRE-Luc follows PKA activation, mean ± SEM
T2 construct: host or cells: COS-7
T2 sequence (P29371 1-465): T1 sequence (P29371 1-465)
Experimental: In order to study the signaling pathways of the novel zebrafish NKBs, the entire coding regions of zftac3ra (denoted by SEQ ID NO:6) or zftac3rb (denoted by SEQ ID NO:7), or the cDNA clone for human NK3R (obtained from the Missouri S&T cDNA Resource Center, were inserted into pcDNA3.1 (Invitrogen). The luciferase assay was conducted according to Biran et al., 2008 [4] COS-7 cells were grown in DMEM supplemented with 10% FBS, 1% glutamine, 100 U/ml penicillin, and 100 mg/ml streptomycin (Biological Industries) under 5% CO2 until confluent. Cotransfection of either pc-zftac3ra, pc-zftac3rb or pc-Htac3r (at 3 μg/plate), a reporter plasmid (at 2 μg/plate), and pCMV-β-galactosidase (at 1 μg/plate) was carried out with FuGENE 6.0 reagent (Roche). The cells were serum starved for 36 h, stimulated with vehicle or various concentrations of either human (Sigma) or zebrafish NKBs for 6 h, and then harvested and analyzed. Lysates prepared from the harvested cells were assayed for both luciferase activity and β-galactosidase activity, which was used as an internal standard to normalize the luciferase activity directed by the test plasmid. […]
The response, binding selectivity and signal transduction pathways of the novel tachykinin receptors to their agonists were evaluated by functional expression analysis, using COS-7 cells. […]

[7] = system: zfTac3ra; assay: Receptor transactivation assay, SRE-Luc reporter (PKC activation), COS-7 cells expressing zfTac3ra; format: cell-based, zebrafish; settings: mean ± SEM
Procedure, shortened: as §4

[8] = system: zfTac3ra; assay: Receptor transactivation assay, CRE-Luc reporter (PKA activation), COS-7 cells expressing zfTac3ra; format: cell-based, zebrafish; settings: mean ± SEM
Procedure, shortened: as §4

[9] = biological target: T2, huNK3R; assay: Receptor transactivation assay, SRE-Luc reporter (PKC activation), COS-7 cells expressing human NK3R; format: cell-based
Experimental: In order to study the signaling pathways of the novel zebrafish NKBs, the entire coding regions of zftac3ra (denoted by SEQ ID NO:6) or zftac3rb (denoted by SEQ ID NO:7), or the cDNA clone for human NK3R (obtained from the Missouri S&T cDNA Resource Center, were inserted into pcDNA3.1 (Invitrogen). The luciferase assay was conducted according to Biran et al., 2008 [4] COS-7 cells were grown in DMEM supplemented with 10% FBS, 1% glutamine, 100 U/ml penicillin, and 100 mg/ml streptomycin (Biological Industries) under 5% CO2 until confluent. Cotransfection of either pc-zftac3ra, pc-zftac3rb or pc-Htac3r (at 3 μg/plate), a reporter plasmid (at 2 μg/plate), and pCMV-β-galactosidase (at 1 μg/plate) was carried out with FuGENE 6.0 reagent (Roche). The cells were serum starved for 36 h, stimulated with vehicle or various concentrations of either human (Sigma) or zebrafish NKBs for 6 h, and then harvested and analyzed. Lysates prepared from the harvested cells were assayed for both luciferase activity and β-galactosidase activity, which was used as an internal standard to normalize the luciferase activity directed by the test plasmid. Transfection experiments were performed in triplicate with three independently isolated sets.
To validate the specificity of the serum-responsive element (SRE)-Luc and cAMP-responsive element (CRE)-Luc reporter systems, specific activators for PLC/PKC and AC/PKA signaling pathways were used in control experiments.

potency [2]: high potency
EC50 ([4]; Table 5, COS-7 cells, SRE-Luc follows PKC activation, read-out: EC50 SRE-Luc zfTac3rb): 0.36 ± 0.16 nM
EC50 ([4]; Table 7 (native peptides and analogues), PKC activation, read-out: EC50 using SRE, zfTac3rb): 0.37 ± 0.16 nM
EC50 ([5]; Table 5, COS-7 cells, CRE-Luc follows PKA activation, read-out: EC50 CRE-Luc zfTac3rb): 1.8 ± 1.55 nM
EC50 ([5]; Table 6 (native peptides and analogues), PKA activation, read-out: EC50 using CRE-Luc, zfTac3rb): 1.8 nM
EC50 [6]: 4.36 ± 1.25 nM
EC50 ([7]; Table 5, COS-7 cells, SRE-Luc follows PKC activation, read-out: EC50 SRE-Luc zfTac3ra): 0.54 ± 0.13 nM
EC50 ([7]; Table 7 (native peptides and analogues), PKC activation, read-out: EC50 using SRE, zfTac3ra): 0.55 nM
EC50 ([8]; Table 5, COS-7 cells, CRE-Luc follows PKA activation, read-out: EC50 CRE-Luc zfTac3ra): 4.94 ± 1.83 nM
EC50 ([8]; Table 6 (native peptides and analogues), PKA activation, read-out: EC50 using CRE-Luc, zfTac3ra): 4.94 ± 1.83 nM
SRE-driven luciferase activity, response ([9]; COS-7 cells transiently transfected with human NK3R): elicited an increased response
EC50 ([9]; Table 5, COS-7 cells, SRE-Luc follows PKC activation, mean ± SEM): 0.52 ± 0.18 nM
SMILES: CC[C@H](C)[C@H](NC(=O)[C@H](CC(=O)O)NC(=O)[C@H](CC(N)=O)NC(=O)[C@@H](N)Cc1ccc(O)cc1)C(=O)N[C@@H](CC(=O)O)C(=O)N[C@@H](Cc1ccc(O)cc1)C(=O)N[C@@H](CC(=O)O)C(=O)N[C@@H](CO)C(=O)N[C@@H](Cc1ccccc1)C(=O)N[C@H](C(=O)NCC(=O)N[C@@H](CC(C)C)C(=O)N[C@@H](CCSC)C(N)=O)C(C)C [zfNKF] (H-YNDIDYDSFVGLM-NH2)
LH secretion ([1]; 20 pmol/g body weight, sexually mature female zebrafish): significant increase; also recorded: significant LH secretion
magnitude of the induced LH discharge ([1]; compared with GnRH): comparable with that observed in response to GnRH
potency [3]: most potent among all tachykinins examined
